Results from ChEMBL document CHEMBL1201862, “PubChem BioAssay data set” (2004).
Calls of active or inactive are those of the source.

Legend:
[1] = target: Glyceraldehyde-3-phosphate dehydrogenase (Homo sapiens, UniProt P04406)
[2] = target: T1, Alkaline phosphatase, tissue-nonspecific isozyme (Homo sapiens, UniProt P05186); experiment: potency against alkaline phosphatase TNAP – biochemical, luminescent, dose response, SAR follow-up (AID 1056)
T1 sequence (P05186 whole entry): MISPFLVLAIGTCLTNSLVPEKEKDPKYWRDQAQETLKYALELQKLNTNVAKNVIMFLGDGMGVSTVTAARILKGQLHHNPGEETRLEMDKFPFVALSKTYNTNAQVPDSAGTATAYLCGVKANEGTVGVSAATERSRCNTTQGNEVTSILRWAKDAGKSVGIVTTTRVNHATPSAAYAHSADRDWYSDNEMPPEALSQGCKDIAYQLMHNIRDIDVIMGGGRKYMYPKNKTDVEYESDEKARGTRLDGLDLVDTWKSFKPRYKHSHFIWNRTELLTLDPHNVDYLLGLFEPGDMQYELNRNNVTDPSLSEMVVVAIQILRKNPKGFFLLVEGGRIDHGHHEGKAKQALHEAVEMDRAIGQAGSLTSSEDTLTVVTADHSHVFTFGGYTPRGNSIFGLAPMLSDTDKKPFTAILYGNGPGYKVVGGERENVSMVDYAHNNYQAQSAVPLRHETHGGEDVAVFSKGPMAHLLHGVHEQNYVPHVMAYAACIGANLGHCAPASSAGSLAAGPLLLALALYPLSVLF

[3] = target: T2, Fructose-bisphosphate aldolase (Mycobacterium tuberculosis, UniProt P9WQA3); experiment: Fluorescence-based biochemical high throughput dose response assay for inhibitors of the fructose-bisphosphate aldolase (FBA) of M. tuberculosis.; type: functional
T2 sequence (P9WQA3 whole entry): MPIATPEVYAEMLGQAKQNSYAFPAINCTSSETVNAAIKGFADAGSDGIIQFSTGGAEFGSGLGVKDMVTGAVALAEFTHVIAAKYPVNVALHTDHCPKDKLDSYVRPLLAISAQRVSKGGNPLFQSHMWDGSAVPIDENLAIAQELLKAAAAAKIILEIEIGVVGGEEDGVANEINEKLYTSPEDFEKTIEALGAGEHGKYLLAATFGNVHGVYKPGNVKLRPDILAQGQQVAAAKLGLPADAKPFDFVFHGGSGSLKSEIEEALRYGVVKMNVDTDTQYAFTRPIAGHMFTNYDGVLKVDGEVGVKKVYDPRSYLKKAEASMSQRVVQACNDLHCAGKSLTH

Paired box protein Pax-8 = Paired box protein Pax-8 (Homo sapiens, UniProt Q06710); experiment: PAX8 transcriptional activity inhibition in RMG-I – RMG-I cells, luciferase, cherry-pick, dose response (AID 687027); type: functional, cell-based;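 note: luciferase reporter driven by Pax8 target thyroperoxidase promoter measured by SteadyGlo luminescence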
[4] = general cell-killing toxicity readout – plate reader, dry powder samples, cytotoxicity control for PAX8 inhibitor project, dose response (AID 743021); type: functional, cell-based
Major prion protein = Major prion protein (Homo sapiens, UniProt P04156); type: functional, cell-based
cells [5] = experiment: cells
[6] = target: T3, RNA-binding protein pos-1 (Caenorhabditis elegans, UniProt G5EF15); experiment: disruptors of C. elegans POS-1 RNA interaction – biochemical, fluorescence polarization, dose response (AID 1964);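 note: purified POS-1 fused to maltose binding protein made in E. coli; potency of compounds blocking POS-1 binding to fluorescent RNA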
T3 sequence (G5EF15 whole entry): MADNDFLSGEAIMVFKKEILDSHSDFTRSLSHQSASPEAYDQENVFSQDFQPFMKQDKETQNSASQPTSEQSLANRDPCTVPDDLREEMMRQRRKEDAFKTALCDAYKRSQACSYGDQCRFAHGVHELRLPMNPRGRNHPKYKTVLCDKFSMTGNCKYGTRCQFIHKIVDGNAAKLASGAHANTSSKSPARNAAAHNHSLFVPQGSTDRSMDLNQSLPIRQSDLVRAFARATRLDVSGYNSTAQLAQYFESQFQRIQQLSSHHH

[7] = target: T4, Zinc finger protein mex-5 (Caenorhabditis elegans, UniProt Q9XUB2); experiment: potency of MEX-5 RNA-binding blockers – biochemical, C. elegans, fluorescence polarization, dose response (AID 1960)
T4 sequence (Q9XUB2 whole entry): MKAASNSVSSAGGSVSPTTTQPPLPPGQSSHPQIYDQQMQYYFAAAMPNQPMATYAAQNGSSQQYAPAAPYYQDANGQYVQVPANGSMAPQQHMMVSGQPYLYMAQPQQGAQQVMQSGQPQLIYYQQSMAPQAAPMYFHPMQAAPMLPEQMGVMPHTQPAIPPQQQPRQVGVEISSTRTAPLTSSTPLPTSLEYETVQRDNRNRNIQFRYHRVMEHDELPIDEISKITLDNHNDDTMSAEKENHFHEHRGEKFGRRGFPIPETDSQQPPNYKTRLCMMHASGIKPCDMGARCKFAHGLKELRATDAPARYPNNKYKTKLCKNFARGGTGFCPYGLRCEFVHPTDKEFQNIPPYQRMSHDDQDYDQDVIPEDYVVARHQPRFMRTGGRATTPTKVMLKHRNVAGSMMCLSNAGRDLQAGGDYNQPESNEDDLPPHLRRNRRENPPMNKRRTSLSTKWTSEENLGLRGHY

[8] = target: T5, Oxysterols receptor LXR-beta (Homo sapiens, UniProt P55055); type: functional, cell-based;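 note: agonist activity at LXR measured by a cell-based luminescence readout across a dose range, run as a counterscreen for daf-12 agonists; HEK293 cells with Gal4-LXR fusion and GAL4-driven luciferase reporter; potency for activation of Gal4-LXR reporter so compounds are agonists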
T5 sequence (P55055 whole entry): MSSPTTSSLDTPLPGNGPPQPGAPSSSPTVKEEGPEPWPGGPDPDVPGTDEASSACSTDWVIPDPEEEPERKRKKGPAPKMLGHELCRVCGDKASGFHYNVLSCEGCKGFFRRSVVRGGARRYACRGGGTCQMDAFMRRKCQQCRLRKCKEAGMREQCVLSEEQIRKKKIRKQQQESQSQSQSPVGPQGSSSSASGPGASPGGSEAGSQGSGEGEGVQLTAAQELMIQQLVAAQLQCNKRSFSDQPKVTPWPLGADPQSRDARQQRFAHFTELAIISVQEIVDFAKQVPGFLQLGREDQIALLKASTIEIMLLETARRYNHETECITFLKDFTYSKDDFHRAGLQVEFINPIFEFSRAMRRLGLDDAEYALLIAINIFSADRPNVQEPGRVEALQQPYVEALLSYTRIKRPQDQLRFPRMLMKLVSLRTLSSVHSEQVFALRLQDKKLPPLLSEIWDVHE

H4 = experiment: Luminescence Cell-Based Dose Response HTS to Identify Activators of 5'UTR Stem-Loop Driven Prion Protein mRNA Translation in H4 Neuroglioblastoma Cells. [Related pubchem assays: 1829 (Project Summary), 1814 (Primary HTS)]; type: functional; conditions: Homo sapiens
cells [9] = type: functional, cell-based
[10] = target: T6, Nuclear receptor subfamily 0 group B member 1 (Homo sapiens, UniProt P51843); type: functional, cell-based;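 note: HEK293T cells transfected with SF-1 and DAX-1 plus StAR promoter luciferase reporter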
T6 sequence (P51843 whole entry): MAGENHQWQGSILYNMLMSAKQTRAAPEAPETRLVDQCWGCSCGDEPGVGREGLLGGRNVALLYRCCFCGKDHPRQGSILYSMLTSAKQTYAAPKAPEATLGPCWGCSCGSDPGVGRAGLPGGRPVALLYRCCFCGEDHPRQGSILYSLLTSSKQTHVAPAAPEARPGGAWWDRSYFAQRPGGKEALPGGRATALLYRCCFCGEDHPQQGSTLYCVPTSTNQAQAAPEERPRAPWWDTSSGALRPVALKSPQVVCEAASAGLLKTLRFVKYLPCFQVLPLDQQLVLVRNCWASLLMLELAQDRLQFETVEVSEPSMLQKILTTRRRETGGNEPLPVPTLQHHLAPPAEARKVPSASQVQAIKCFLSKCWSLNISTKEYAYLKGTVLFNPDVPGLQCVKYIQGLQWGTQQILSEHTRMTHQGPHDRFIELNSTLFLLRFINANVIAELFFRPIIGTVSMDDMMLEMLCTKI

[11] = Luminescence Cell-Based Dose Retest to Confirm Inhibitors of Cancer Stem Cells. [Related pubchem assays (depositor defined):AID2717, AID2721]; type: functional; conditions: Homo sapiens
[12] = potency of ADAM10 substrate cleavage blockers – biochemical, QFRET, dose response (AID 743254);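 note: ADAM10 enzyme with the DM2 quenched FRET peptide as substrate; EDANS fluorescence gain as the protease cuts the substrate; inhibitor potency against ADAM10 proteolytic activity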
[13] = target: Disintegrin and metalloproteinase domain-containing protein 17 (Homo sapiens, UniProt P78536); experiment: inhibition of ADAM17 substrate cleavage – biochemical, quenched FRET substrate, counter-screen for ADAM10 exosite inhibitor project, dose response (AID 743253)
[14] = viability of PTEN-deleted HCT116 cells – cell-based, HCT116 PTEN knockout, dose response (AID 1047); type: functional;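 note: HCT116 colon tumor cells with PTEN knocked out; cells exposed to compound for 60 hours before readout; potency for loss of cell viability measured by luminescence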
[15] = viability of HCT116 lacking mutant beta-catenin – cell-based, human colon tumor, dose response (AID 1045); type: functional;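 note: HCT116 colon tumor cells with beta catenin knocked out; cells exposed to compound for 60 hours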
cells [16] = type: functional, cell-based; remark: listed apart in the source
cells [17] = type: functional, cell-based; remark: listed apart in the source

COc1ccc(-c2nnc3oc(O)cc(C)c2-3)cc1
IC50 [1]: > 100 µM (not active)
IC50 [2]: 1.06 µM (active)
IC50 [3]: 1.88 µM (active)

Cc1ccc(S(=O)(=O)Nc2ccc3c(c2)CC(=O)N([C@@H](C)CO)C[C@H](C)[C@@H](CN(C)C(=O)Nc2ccc(C(F)(F)F)cc2)O3)cc1
AC50 (Paired box protein Pax-8): 30.4 µM (active)
AC50 [4]: 43.1 µM (active)

CCOC(=O)CSc1nc(CC)nc2ccccc12
IC50 (Major prion protein): 1.08 µM (active)
IC50 (cells [5]): > 138 µM (inactive)

CC(=O)CSc1nc(O)c(C#N)c(-c2cccs2)n1
IC50 (cells [5]): > 138 µM (inactive)

Cc1nnc(S)c2nn(-c3cccc(Cl)c3)c(C)c12
EC50 [6]: 137 µM (active)
EC50 [7]: 153 µM (active)
IC50 (Major prion protein): 5.53 µM (active)
IC50 (cells [5]): > 138 µM (inactive)

Cc1ccc(-c2cn3cccnc3n2)cc1
EC50 [8]: > 67.6 µM (inactive)

O=C(/N=c1\nc2ccccn2s1)c1ccccc1
EC50 (H4): 5.73 µM (active)
IC50 (cells [9]): > 67.5 µM (inactive)
IC50 [10]: > 67.5 µM (inactive)

Cc1cccc(OCCNC(=O)c2cccc(Oc3ccc(C(F)(F)F)cc3[N+](=O)[O-])c2)c1
AC50 [11]: 23.5 µM (active)
IC50 [12]: 27.5 µM (inactive)
IC50 [13]: > 69.5 µM (inactive)

COc1ccc(-c2c[nH]nc2-c2ccc(OCc3ccccc3)cc2O)cc1OC
IC50 [12]: > 69.5 µM (inactive)
IC50 [13]: > 69.5 µM (inactive)

CCOC(=O)c1oc2cccc(OCC(O)CNC(C)C)c2c1C (configuration not stated)
EC50 [14]: 45.6 µM (active)
EC50 [15]: 47.7 µM (active)
IC50 [3]: 0.843 µM (active)

Cc1ccc(-c2nc3ccccc3nc2NN)cc1
EC50 (cells [16]): > 350 µM (not active)
EC50 (cells [17]): 7.52 µM (active)
IC50 [3]: > 10 µM (inactive)
